Several values for one entry are separate records, joined by “and”; a condition that tells them apart may be missing. Equal values may be shown once. Marks after values point to notes of the source that are not given here.
Key:
[1] = system: human lung cancer A549 cells; assay: Cell invasion assayed by Transwell; format: cell-based; settings: invaded cells, control 183.0 ± 12.3
Experimental: Cell lines: human colon cancer HCT-116 cells and human lung cancer A549 cells were provided by NANJING […] BIOTECH. CO., LTD. […] The cell suspension was centrifuged at 800 to 1,000 rpm for 5 min, and the supernatant was discarded; 1.4. A complete culture medium was added to the cell pellet which was well mixed by gentle pipetting, the cell suspension was transferred to a culture flask, and the cells were cultured by supplementing culture medium. 1. […] After incubation of cells with the test drugs for 24 hours, serum was removed, and the cells were incubated under starvation with an incomplete culture medium for 24 hours; 3. Matrigel was placed at 4° C. in advance to thaw overnight; 4. Thawed Matrigel was 1:1 diluted with the incomplete culture medium, 30 μl diluted Matrigel was added to the upper compartment of Transwell and incubated at 37° C. for 120 min to gel the Matrigel; 5. Cells from different groups were digested, counted, and then adjusted to a density of 1×10^5 cells/ml with the incomplete culture medium, 100 μl cell suspension was added to the upper compartment (small compartment) of Transwell, and 500 μl medium containing 20% FBS was added to the lower compartment of Transwell; 6. A 24-well cell culture plate was placed in an incubator at 37° C. and 5% CO2 to culture the cells for 24 hours; 7. […] The assay was repeated one more time.

[2] = system: human lung cancer A549 cells; assay: Cell cycle by PI single staining (flow cytometry); format: cell-based; settings: deuterium oxide 30% v/v, 72 hours
Experimental: Effect of deuterium oxide on the cell cycle of human lung cancer A549 cells and human colon cancer HCT-116 cells Human lung cancer A549 cells and human colon cancer HCT-116 cells were provided by NANJING […] BIOTECH. CO., LTD., and cultured in an incubator at 37° C., 5% CO2 and saturated humidity. A KGA511 Cell cycle assay kit was provided by NANJING […] BIOTECH. CO., LTD. The flow cytometer was FACS Calibur provided by Becton-Dickinson, US. […] The cell suspension was centrifuged at 800 to 1,000 rpm for 5 min, and the supernatant was discarded; 1.4. A complete culture medium was added to the cell pellet which was well mixed by gentle pipetting, the cell suspension was transferred to a culture flask, and the cells were cultured by supplementing culture medium. […] When all the cells became round, an equal volume of culture medium containing serum was added to cease the digestion; 2.4. The cells were blown by pipetting to suspend, then drawn into a 15 ml centrifugal tube, and centrifuged at 1000 rpm for 5 min; 2.5. […] 1. Cells growing in the exponential phase were digested and inoculated to a 6-well plate; on the next day, after the cells attached to the wall, cell culture media containing corresponding test drugs were added according to different groups, and a negative control group was also set; 2. […] The cells were washed with PBS once (centrifuged at 2,000 rpm for 5 min), and 5×10^5 cells were collected; 4. […] In a detection apparatus, red fluorescence with an excitation wavelength of 488 nm was recorded.

dogs = settings: exogenous deuterium oxide; cited from earlier work
[3] = system: xenograft tumors from human colon cancer HCT-116 cells; assay: HCT-116 xenograft in nude mice, intravenous deuterium oxide in combination with 5-fluorouracil; format: in vivo, BALB/c nude mice; settings: for Inhibition (%): tumor weight
Experimental: Ltd. Cell lines: human colon cancer cells HCT-116 were provided by NANJING […] BIOTECH. CO., LTD. […] Bone marrow nucleated cells were isolated by a routine method, DNA was extracted from the cells, the OD value was measured in a UV-260 spectrometer as a representative of the DNA content, and inhibition of DNA synthesis by the test samples was observed. The test used 7 groups in total, with 8 animals per group. […] Tumor volume (TV) was calculated by the following equation: […] From the measurements, relative tumor volume (RTV) was calculated by the following equation: RTV=Vt/V0 Relative tumor growth ratio T/C (%) was calculated by the following equation: Criteria of efficacy evaluation: […] T/C %≦40% and statistically P<0.05, efficacious. Inhibition of tumor growth (%) was calculated by the following equation: Criteria of efficacy evaluation: […] The mean value was expressed in X±SD. Inter-group analysis was statistically performed with t test. The results were statistically analyzed using SPSS (Statistical Package for the Social Science) 17.0.

[4] = system: human colon cancer HCT-116 cells (a moderately drug resistant strain); assay: MTT assay: deuterium oxide in combination with 5-FU; format: cell-based; settings: read-out: Inhibition of cell growth (%) (5-FU alone)
Experimental: In vitro inhibition of growth of human colon cancer HCT-116 cells (a moderately drug resistant strain) by deuterium oxide in combination with 5-fluorouracil (5-FU)
Method: 5-fluorouracil was diluted with the sodium chloride deuterium oxide solution according to the concentrations shown in Table 2 and added to a cell culture plate; the in vitro inhibition of tumor cell growth was measured by the MTT assay in the same manner as Example 14.
The assay was repeated one more time.

[5] = 5-FU(H) 30 mg/kg × 11, tail vein
[6] = 5-FU(L) 12 mg/kg × 11, tail vein

[2H]O[2H] [Deuterium oxide]
Number of cells (A549) ([1]; deuterium oxide 1.8% (v/v)): 74.3 ± 11.0 | Number of cells (A549) ([1]; deuterium oxide 7.5% (v/v)): 43.0 ± 4.4 | Number of cells (A549) ([1]; deuterium oxide 15% (v/v)): 29.3 ± 1.5 | Number of cells (A549) ([1]; deuterium oxide 30% (v/v)): 22.0 ± 1.7 | Number of cells (A549) ([1]; deuterium oxide […] (v/v)): 54.0 ± 2.0 | G2 Phase ([2]; control 6.21 ± 4.52): 13.47 ± 3.94% | S Phase ([2]; control 13.50 ± 1.33): 0.31 ± 0.28% | G1 Phase ([2]; control 80.29 ± 5.02): 86.23 ± 3.69% | concentration in the body that causes a toxic effect (dogs): 30%

O=c1[nH]cc(F)c(=O)[nH]1 [Example 5-FU, 5-fluorouracil]
Body weight (g) End, given as change [3, 5]: -1.0 g | Body weight (g) Initial [3, 5]: 18.4 ± 0.5 g and 18.4 g | Bone marrow DNA content (OD) [3, 5]: 0.836 ± 0.5023 OD | Tumor weight [3, 5]: 1.04 ± 0.13 g | Body weight (g) End, given as change [3, 6]: -0.6 g | Body weight (g) Initial [3, 6]: 18.0 g | Bone marrow DNA content (OD) [3, 6]: 0.897 ± 0.3783 OD | Tumor weight [3, 6]: 2.23 ± 0.2 g | tumor volume ([3]; 21 days after administration, low-dose 5-FU alone): 2.27±0.30 cm^3 | body weight at end ([3]; high-dose 5-FU positive control): 17.4 ± 0.5 g | T/C (relative tumor growth ratio) ([3]; low-dose 5-FU alone, vs negative control): 80.91% | Inhibition (%) [3, 5]: 64.38%* | Inhibition (%) [3, 6]: 23.64% and 23.63% | inhibition at 0.02 µg/mL ([4]; 5-FU final conc. 0.02 μg/ml): 2.18% | inhibition at 0.05 µg/mL ([4]; 5-FU final conc. 0.05 μg/ml): 2.55% | inhibition at 0.1 µg/mL ([4]; 5-FU final conc. 0.10 μg/ml): 2.3% | inhibition at 0.2 µg/mL ([4]; 5-FU final conc. 0.20 μg/ml): 3.24% | inhibition at 0.39 µg/mL ([4]; 5-FU final conc. 0.39 μg/ml): 6.98% | inhibition at 0.78 µg/mL ([4]; 5-FU final conc. 0.78 μg/ml): 9.82% | inhibition at 1.56 µg/mL ([4]; 5-FU final conc. 1.56 μg/ml): 11% | inhibition at 3.13 µg/mL ([4]; 5-FU final conc. 3.13 μg/ml): 18.6% | inhibition at 6.25 µg/mL ([4]; 5-FU final conc. 6.25 μg/ml): 26.5% | inhibition at 12.5 µg/mL ([4]; 5-FU final conc. 12.5 μg/ml): 35.3%
